{"source": "patent US20230085307A1", "about": "“PYRIDAZINONE COMPOUND AND HERBICIDE” (NISSAN CHEMICAL CORPORATION, priority 2019, published 2023)", "key": {"[1]": {"test_system": "southern crabgrass", "experiment": "Test Example 5: herbicidal effect by foliage application, plastic box (Table 20, symbol F)", "assay_type": "in vivo, southern crabgrass (Digitaria ciliaris)", "details": "foliage application, 320 g/ha, evaluated three weeks after application", "in_short": "(§1)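 Post-emergence foliar test in sterilized diluvial soil. Compound applied as water-diluted emulsion at a predetermined rate to 14-day-old plants; evaluation at three weeks.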"}, "[2]": {"test_system": "Italian ryegrass", "experiment": "Test Example 4: herbicidal effect by soil treatment (Table 19, symbol K)", "assay_type": "in vivo, Italian ryegrass (Lolium multiflorum)", "details": "amount of applied herbicide 320 g/ha", "in_short": "(§2)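 Scoring uses the grading scale of an earlier test, three weeks post-application. Treatment consists of spraying a diluted emulsion formulation across the surface of sterilized diluvial soil in which seeds are buried near 1.5 cm deep; boxes are kept in a greenhouse between 25° C. and 30° C.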"}, "[3]": {"test_system": "lambsquarters", "experiment": "Test Example 5: herbicidal effect by foliage application, plastic box (Table 20, symbol O)", "assay_type": "in vivo, lambsquarters (Chenopodium album)", "details": "foliage application, 320 g/ha, evaluated three weeks after application", "in_short": "as §1"}, "[4]": {"test_system": "blackgrass", "experiment": "Test Example 5: herbicidal effect by foliage application, plastic box (Table 20, symbol J)", "assay_type": "in vivo, blackgrass (Alopecurus myosuroides)", "details": "foliage application, 320 g/ha, evaluated three weeks after application", "in_short": "as §1"}, "[5]": {"test_system": "persian speedwell", "experiment": "Test Example 4: herbicidal effect by soil treatment (Table 19, symbol R)", "assay_type": "in vivo, Persian speedwell (Veronica persica)", "details": "amount of applied herbicide 320 g/ha", "in_short": "as §2"}, "[6]": {"test_system": "barnyard grass", "experiment": "Test Example 5: herbicidal effect by foliage application, plastic box (Table 20, symbol H)", "assay_type": "in vivo, barnyard grass (Echinochloa crus-galli)", "details": "foliage application, 320 g/ha, evaluated three weeks after application", "in_short": "as §1"}, "[7]": {"test_system": "lambsquarters", "experiment": "Test Example 4: herbicidal effect by soil treatment (Table 19, symbol O)", "assay_type": "in vivo, lambsquarters (Chenopodium album)", "details": "amount of applied herbicide 320 g/ha", "in_short": "as §2"}, "[8]": {"test_system": "rice flat sedge", "experiment": "Test Example 3: herbicidal effect by foliage application, Wagner pot (Table 18, symbol E)", "assay_type": "in vivo, rice flat sedge (Cyperus iria)", "details": "amount of applied herbicide 320 g/ha", "in_short": "(§3)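 Plants were sown in alluvial soil held under 0.1–0.5 cm standing water and grown 14 days in a greenhouse at 25–30 °C. An emulsifiable formulation, water-diluted to the set dose, was then sprayed onto the foliage, and effects were scored three weeks later using previously defined criteria.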"}, "[9]": {"test_system": "Italian ryegrass", "experiment": "Test Example 5: herbicidal effect by foliage application, plastic box (Table 20, symbol K)", "assay_type": "in vivo, Italian ryegrass (Lolium multiflorum)", "details": "foliage application, 320 g/ha, evaluated three weeks after application", "in_short": "as §1"}, "[10]": {"test_system": "redroot pigweed", "experiment": "Test Example 4: herbicidal effect by soil treatment (Table 19, symbol N)", "assay_type": "in vivo, redroot pigweed (Amaranthus retroflexus)", "details": "amount of applied herbicide 320 g/ha", "in_short": "as §2"}, "[11]": {"test_system": "green foxtail", "experiment": "Test Example 5: herbicidal effect by foliage application, plastic box (Table 20, symbol G)", "assay_type": "in vivo, green foxtail (Setaria viridis)", "details": "foliage application, 320 g/ha, evaluated three weeks after application", "in_short": "as §1"}, "[12]": {"test_system": "southern crabgrass", "experiment": "Test Example 4: herbicidal effect by soil treatment (Table 19, symbol F)", "assay_type": "in vivo, southern crabgrass (Digitaria ciliaris)", "details": "amount of applied herbicide 320 g/ha", "in_short": "as §2"}, "[13]": {"test_system": "velvetleaf", "experiment": "Test Example 4: herbicidal effect by soil treatment (Table 19, symbol M)", "assay_type": "in vivo, velvetleaf (Abutilon theophrasti)", "details": "amount of applied herbicide 320 g/ha", "in_short": "as §2"}, "[14]": {"test_system": "wild oat", "experiment": "Test Example 5: herbicidal effect by foliage application, plastic box (Table 20, symbol I)", "assay_type": "in vivo, wild oat (Avena fatua)", "details": "foliage application, 320 g/ha, evaluated three weeks after application", "in_short": "as §1"}, "[15]": {"test_system": "blackgrass", "experiment": "Test Example 4: herbicidal effect by soil treatment (Table 19, symbol J)", "assay_type": "in vivo, blackgrass (Alopecurus myosuroides)", "details": "amount of applied herbicide 320 g/ha", "in_short": "as §2"}, "[16]": {"test_system": "chickweed", "experiment": "Test Example 5: herbicidal effect by foliage application, plastic box (Table 20, symbol P)", "assay_type": "in vivo, common chickweed (Stellaria media)", "details": "foliage application, 320 g/ha, evaluated three weeks after application", "in_short": "as §1"}, "[17]": {"test_system": "Chinese sprangletop", "experiment": "Test Example 3: herbicidal effect by foliage application, Wagner pot (Table 18, symbol D)", "assay_type": "in vivo, chinese sprangletop (Leptochloa chinensis)", "details": "amount of applied herbicide 320 g/ha", "in_short": "as §3"}, "[18]": {"test_system": "barnyard grass", "experiment": "Test Example 4: herbicidal effect by soil treatment (Table 19, symbol H)", "assay_type": "in vivo, barnyard grass (Echinochloa crus-galli)", "details": "amount of applied herbicide 320 g/ha", "in_short": "as §2"}, "[19]": {"test_system": "wild oat", "experiment": "Test Example 4: herbicidal effect by soil treatment (Table 19, symbol I)", "assay_type": "in vivo, wild oat (Avena fatua)", "details": "amount of applied herbicide 320 g/ha", "in_short": "as §2"}, "[20]": {"test_system": "barnyard grass", "experiment": "Test Example 3: herbicidal effect by foliage application, Wagner pot (Table 18, symbol H)", "assay_type": "in vivo, barnyard grass (Echinochloa crus-galli)", "details": "amount of applied herbicide 320 g/ha", "in_short": "as §3"}, "[21]": {"test_system": "windgrass", "experiment": "Test Example 5: herbicidal effect by foliage application, plastic box (Table 20, symbol L)", "assay_type": "in vivo, windgrass (Apera spica-venti)", "details": "foliage application, 320 g/ha, evaluated three weeks after application", "in_short": "as §1"}, "[22]": {"test_system": "green foxtail", "experiment": "Test Example 4: herbicidal effect by soil treatment (Table 19, symbol G)", "assay_type": "in vivo, green foxtail (Setaria viridis)", "details": "amount of applied herbicide 320 g/ha", "in_short": "as §2"}, "[23]": {"test_system": "velvetleaf", "experiment": "Test Example 5: herbicidal effect by foliage application, plastic box (Table 20, symbol M)", "assay_type": "in vivo, velvetleaf (Abutilon theophrasti)", "details": "foliage application, 320 g/ha, evaluated three weeks after application", "in_short": "as §1"}, "[24]": {"test_system": "windgrass", "experiment": "Test Example 4: herbicidal effect by soil treatment (Table 19, symbol L)", "assay_type": "in vivo, windgrass (Apera spica-venti)", "details": "amount of applied herbicide 320 g/ha", "in_short": "as §2"}, "[25]": {"test_system": "chickweed", "experiment": "Test Example 4: herbicidal effect by soil treatment (Table 19, symbol P)", "assay_type": "in vivo, common chickweed (Stellaria media)", "details": "amount of applied herbicide 320 g/ha", "in_short": "as §2"}, "[26]": {"test_system": "persian speedwell", "experiment": "Test Example 5: herbicidal effect by foliage application, plastic box (Table 20, symbol R)", "assay_type": "in vivo, Persian speedwell (Veronica persica)", "details": "foliage application, 320 g/ha, evaluated three weeks after application", "in_short": "as §1"}, "[27]": {"test_system": "redroot pigweed", "experiment": "Test Example 5: herbicidal effect by foliage application, plastic box (Table 20, symbol N)", "assay_type": "in vivo, redroot pigweed (Amaranthus retroflexus)", "details": "foliage application, 320 g/ha, evaluated three weeks after application", "in_short": "as §1"}}}
{"molecule": "COc1ccccc1-c1sc2ccc(NC(=O)OC(C)(C)C)cc2c1-c1c(O)c(C)nn(C)c1=O", "note": "[2-181]", "values": [{"measurement": "herbicidal effect on F: southern crabgrass (criteria 0-5)", "setting": "[1]", "value": "0 (Herbicidal rate of 5% or less (almost no effect))"}, {"measurement": "K: Italian ryegrass, herbicidal effect rating", "setting": "[2]", "value": "0 (Herbicidal rate of 5% or less (almost no effect))"}, {"measurement": "herbicidal effect on O: lambsquarters (criteria 0-5)", "setting": "[3]", "value": "4 (Herbicidal rate of 70% or more and less than 90%)"}, {"measurement": "herbicidal effect on J: blackgrass (criteria 0-5)", "setting": "[4]", "value": "0 (Herbicidal rate of 5% or less (almost no effect))"}, {"measurement": "R: persian speedwell, herbicidal effect rating", "setting": "[5]", "value": "4 (Herbicidal rate of 70% or more and less than 90%)"}, {"measurement": "herbicidal effect on H: barnyard grass (criteria 0-5)", "setting": "[6]", "value": "0 (Herbicidal rate of 5% or less (almost no effect))"}, {"measurement": "O: lambsquarters, herbicidal effect rating", "setting": "[7]", "value": "4 (Herbicidal rate of 70% or more and less than 90%)"}, {"measurement": "herbicidal effect on E: rice flat sedge", "setting": "[8]", "value": "0 (Herbicidal rate of 5% or less (almost no effect))"}, {"measurement": "herbicidal effect on K: Italian ryegrass (criteria 0-5)", "setting": "[9]", "value": "0 (Herbicidal rate of 5% or less (almost no effect))"}, {"measurement": "N: redroot pigweed, herbicidal effect rating", "setting": "[10]", "value": "3 (Herbicidal rate of 40% or more and less than 70%)"}, {"measurement": "herbicidal effect on G: green foxtail (criteria 0-5)", "setting": "[11]", "value": "1 (Herbicidal rate of 5% or more and less than 20%)"}, {"measurement": "F: southern crabgrass, herbicidal effect rating", "setting": "[12]", "value": "0 (Herbicidal rate of 5% or less (almost no effect))"}, {"measurement": "M: velvetleaf, herbicidal effect rating", "setting": "[13]", "value": "0 (Herbicidal rate of 5% or less (almost no effect))"}, {"measurement": "herbicidal effect on I: wild oat (criteria 0-5)", "setting": "[14]", "value": "0 (Herbicidal rate of 5% or less (almost no effect))"}, {"measurement": "J: blackgrass, herbicidal effect rating", "setting": "[15]", "value": "0 (Herbicidal rate of 5% or less (almost no effect))"}, {"measurement": "herbicidal effect on P: chickweed (criteria 0-5)", "setting": "[16]", "value": "5 (Herbicidal rate of 90% or more (almost completely withered))"}, {"measurement": "herbicidal effect on D: Chinese sprangletop", "setting": "[17]", "value": "3 (Herbicidal rate of 40% or more and less than 70%)"}, {"measurement": "H: barnyard grass, herbicidal effect rating", "setting": "[18]", "value": "0 (Herbicidal rate of 5% or less (almost no effect))"}, {"measurement": "I: wild oat, herbicidal effect rating", "setting": "[19]", "value": "0 (Herbicidal rate of 5% or less (almost no effect))"}, {"measurement": "herbicidal effect on H: barnyard grass", "setting": "[20]", "value": "2 (Herbicidal rate of 20% or more and less than 40%)"}, {"measurement": "herbicidal effect on L: windgrass (criteria 0-5)", "setting": "[21]", "value": "0 (Herbicidal rate of 5% or less (almost no effect))"}, {"measurement": "G: green foxtail, herbicidal effect rating", "setting": "[22]", "value": "0 (Herbicidal rate of 5% or less (almost no effect))"}, {"measurement": "herbicidal effect on M: velvetleaf (criteria 0-5)", "setting": "[23]", "value": "3 (Herbicidal rate of 40% or more and less than 70%)"}, {"measurement": "L: windgrass, herbicidal effect rating", "setting": "[24]", "value": "0 (Herbicidal rate of 5% or less (almost no effect))"}, {"measurement": "P: chickweed, herbicidal effect rating", "setting": "[25]", "value": "4 (Herbicidal rate of 70% or more and less than 90%)"}, {"measurement": "herbicidal effect on R: persian speedwell (criteria 0-5)", "setting": "[26]", "value": "5 (Herbicidal rate of 90% or more (almost completely withered))"}, {"measurement": "herbicidal effect on N: redroot pigweed (criteria 0-5)", "setting": "[27]", "value": "5 (Herbicidal rate of 90% or more (almost completely withered))"}]}
